Source: publication PMC9779714, “Enhanced Therapeutic Effect of Optimized Melittin-dKLA, a Peptide Agent Targeting M2-like Tumor-Associated Macrophages in Triple-Negative Breast Cancer” (International Journal of Molecular Sciences, 2022)

What was measured:
red blood cells = assay: Hemolysis assay on mouse red blood cells; format: cell-based, BALB/c mouse; settings: mouse red blood cells in PBS, peptides 1-40 μM, 4 h at 37 °C, OD 450 nm of supernatant, 2% Triton X-100 positive control, mean of n = 3
Protocol: Melittin has been well-documented to have strong hemolytic effects. To diminish such adverse effects, several truncated melittin were synthesized and analyzed in vitro (Figure 2A). Mouse blood cells were treated with varying concentrations of peptides for 4 h, and the optical density was measured using a microplate reader.
Figure 2 Melittin fragments have fewer hemolytic effects than melittin. (A) Amino acid sequence of melittin and melittin-truncated peptide. (B) Hemolysis of red blood cells treated with FITC-conjugated melittin or FITC-conjugated melittin fragments at concentrations ranging from 1 μM to 40 μM and incubated at 37 °C for 4 h. […] The optical density of hemoglobin released supernatant was measured at 450 nm. […]
Figure 4 Characterization of the optimized hybrid peptide drug, PEG-melittin-dKLA 8-26. […] The optical density was measured at 490 nm. […] The optical density of hemoglobin released in the supernatant was measured at 450 nm. […]
Blood was collected from each BALB/c mouse. […] The optical density of the samples was measured at 450 nm using a microplate reader (Molecular Devices). The percentage of hemolysis was calculated using the following equation: hemolysis (%) = (OD450 nm sample − OD450 nm negative control)/(OD450 nm positive control − OD450 nm negative control) × 100%. All data are expressed as the mean ± SEM of three independent experiments.

[1] = system: THP-1-derived M2 macrophages; assay: Flow cytometry binding of FITC-conjugated peptides to M2 macrophages; format: cell-based, human; settings: 100 nM FITC-conjugated peptides, 1 h, percentage of FITC-positive cells, n = 3
Protocol: To address the binding ability of truncated melittin peptides to M2 macrophages, fluorescein isothiocyanate (FITC)-conjugated peptides were synthesized and incubated with M2 macrophages, and the percentage of FITC-positive cells was measured using flow cytometry. […] Next, to confirm and compare the binding capabilities of melittin and melittin 8-26 to different macrophage lineages, including M0, M1, and M2, FITC-conjugated peptides were tested on each macrophage phenotype, and their binding capabilities were measured by flow cytometry. […]
Figure 3 Binding of melittin fragments to the THP-1-derived M2 macrophages. […] (A) Melittin or melittin fragment affinity for M2 macrophages was measured using flow cytometry. […] (B) The affinity of melittin or melittin 8-26 for macrophages was detected by flow cytometry. TEXT PRINTED IN THE PICTURE: (B) Melittin: M0: 21.78; M1: 17.22; M2: 46.02 | (B) Melittin 8-26: M0: 26.8; M1: 14.74; M2: 34.66 DOUBTS OF THE COPYIST ABOUT THIS PICTURE: Panel B: the tiny quadrant labels (UL 0.00, UR 0.00, and LL values such as about 78.22, 53.98, 73.20, 85.26, 65.34) are too small, blurred or partly hidden by the dots to read with certainty, so they are left out. / Panel B: no measure or unit is printed with the large quadrant numbers. […]

melittin
concentration at which hemolysis was observed (red blood cells): above 5 μM
binding affinity to M2 macrophages (in words) [1]: highest binding affinity
